Assay results taken from patent US20250333397A1 (REMIX THERAPEUTICS INC., priority 2021, published 2025).
Read-outs that look alike come from different tables or passages of the source.

Legend:
Type in all cases: cell-based, human
[1] = system: HTT mRNA; assay: RT-qPCR splicing assay, HTT canonical (CJ) and alternative (AJ) junction mRNA; settings: for AC50: read-out: HTT AJ (AC50, increase in AJ mRNA)
Method in brief: (§1)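 A673 (DMEM/10% FBS) or K562 (IMDM/10% FBS) cells treated 24 h at 37 °C with 11-point 3-fold dilutions, top 10 uM final, DMSO ≤0.25%. Lysates read by one-step RT-qPCR for CJ and AJ isoforms, normalized to GAPDH, GUSB or PPIA. ΔΔCt vs DMSO gives RQ via 2^(-ΔΔCt).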

[2] = system: MYB mRNA; assay: RT-qPCR splicing assay, MYB canonical (CJ) and alternative (AJ) junction mRNA; settings: for AC50: read-out: MYB AJ (AC50, increase in AJ mRNA)
Method in brief: as §1

[3] = system: SMN2 mRNA; assay: RT-qPCR splicing assay panel, SMN2 canonical junction (CJ) mRNA
Method in brief: as §1

[4] = system: Target C mRNA; assay: RT-qPCR splicing assay panel, Target C canonical junction (CJ) mRNA
Method in brief: as §1

[5] = Homo sapiens, 24 h, Table 3B, A673 or K562 cells, 24 h treatment
[6] = Homo sapiens, 24 h, Table 3B, A673 or K562 cells, 24 h treatment, read-out: HTT CJ (IC50, decrease in CJ mRNA)
[7] = Homo sapiens, Table 4B, gene panel, read-out: HTT (IC50, decrease in CJ mRNA levels)
[8] = Homo sapiens, 24 h, Table 3B, A673 or K562 cells, 24 h treatment, read-out: MYB CJ (IC50, decrease in CJ mRNA)
[9] = Homo sapiens, Table 4B, gene panel, read-out: MYB (IC50, decrease in CJ mRNA levels)
[10] = Homo sapiens, Table 4B, gene panel, read-out: SMN2 (IC50, decrease in CJ mRNA levels)
[11] = Homo sapiens, Table 4B, gene panel, read-out: Target C (IC50, decrease in CJ mRNA levels)
[12] = Homo sapiens, 24 h, Table 3A, A673 or K562 cells, 24 h treatment
[13] = Homo sapiens, 24 h, Table 3A, A673 or K562 cells, 24 h treatment, read-out: HTT CJ (IC50, decrease in CJ mRNA)
[14] = Homo sapiens, canonical junction (CJ) mRNA, RT-qPCR panel, Table 4A, read-out: HTT, decrease in CJ mRNA levels, IC50
[15] = Homo sapiens, 24 h, Table 3A, A673 or K562 cells, 24 h treatment, read-out: MYB CJ (IC50, decrease in CJ mRNA)
[16] = Homo sapiens, canonical junction (CJ) mRNA, RT-qPCR panel, Table 4A, read-out: MYB, decrease in CJ mRNA levels, IC50
[17] = Homo sapiens, canonical junction (CJ) mRNA, RT-qPCR panel, Table 4A, read-out: SMN2, decrease in CJ mRNA levels, IC50
[18] = Homo sapiens, canonical junction (CJ) mRNA, RT-qPCR panel, Table 4A, read-out: Target C, decrease in CJ mRNA levels, IC50
[19] = Table 3A, A673 or K562 cells, 24 h treatment

Structure (SMILES)	AC50 [1, 5] [nM]	IC50 [1, 6] [nM]	IC50 [1, 7] [nM]	AC50 [2, 5] [nM]	IC50 [2, 8] [nM]	IC50 [2, 9] [nM]	IC50 [3, 10] [nM]	IC50 [4, 11] [nM]	AC50 [1, 12] [nM]	IC50 [1, 13] [nM]	IC50 [1, 14] [nM]	AC50 [2, 12] [nM]	IC50 [2, 15] [nM]	IC50 [2, 16] [nM]	IC50 [3, 17] [nM]	IC50 [4, 18] [nM]	also measured
Cc1nc2c(F)c(O)c(-c3ccc(N4CC[C@H](NC(C)(C)C)C4)nn3)cc2o1 [Compound 843]	> 10000	> 10000	> 10000	> 10000	> 10000	> 10000	> 10000	> 10000									
Cc1nc2cc(O)c(-c3cnc(N4CC[C@@H](NC(C)(C)C)C4)nn3)cc2o1 [Compound 808]	> 10000	1000 to 10000	1000 to 10000	> 10000	> 10000	> 10000	1000 to 10000	> 10000									
COc1cc(-c2cc(O)c(-c3ccc(N4CC[C@@H](NC(C)(C)C)C4)nn3)cc2F)ncn1 [Compound 396]									1000 to 10000	100 to 1000	100 to 1000	1000 to 10000	1000 to 10000	1000 to 10000	< 100	1000 to 10000	
COc1cc(-c2ccc(-c3ccc(N4CC[C@H](NC(C)(C)C)C4)nn3)c(O)c2)ncn1 [Compound 283, 2-{6-[(3S)-3-(tert-butylamino)pyrrolidin-1-yl]pyridazin-3-yl}-5-(6-methoxypyrimidin-4-yl)phenol]									< 100	< 100	< 100	100 to 1000	100 to 1000	100 to 1000	< 100	< 100	
Cn1c(=O)oc2cc(-c3ccc(N4CCC(NC(C)(C)C)C4)nn3)c(O)cc21 (centres unmarked) [Compound 800]	100 to 1000	100 to 1000	100 to 1000	100 to 1000	1000 to 10000	1000 to 10000	< 100	100 to 1000									
COc1cc(-c2ccc(-c3ccc(N4CC[C@@H](NCC5CC5)C4)nn3)c(O)c2)cnn1 [Compound 288]									100 to 1000	< 100	< 100	100 to 1000	100 to 1000	100 to 1000	< 100	100 to 1000	
Cc1ncc2cc(-c3ccc(N4CCC(NC(C)(C)C)C4)nn3)c(O)cc2n1 (centres unmarked) [Compound 818]	> 10000	> 10000	> 10000	> 10000	> 10000	> 10000	> 10000	> 10000									
COc1cc(-c2ccc(-c3ccc(N4CCC(N[C@H]5C[C@H](OC)C5)C4)nn3)c(O)c2)cnn1 (some centres unmarked) [Compound 448]									100 to 1000	100 to 1000	100 to 1000	100 to 1000	100 to 1000	100 to 1000	< 100	100 to 1000	
CC(C)(C)NC1CCN(c2ccc(-c3cc4oc(CC#N)nc4cc3O)nn2)C1 (centres unmarked) [Compound 820]	100 to 1000	100 to 1000	100 to 1000	100 to 1000	1000 to 10000	1000 to 10000	< 100	1000 to 10000									
COc1cc(-c2ccc(-c3ccc(N4CC[C@H](NC5(C)CC5)C4)nn3)c(O)c2)cnn1 [Compound 265, 5-(6-methoxypyridazin-4-yl)-2-{6-[(3S)-3-[(1-methylcyclopropyl)amino]pyrrolidin-1-yl]pyridazin-3-yl}phenol]																	AC50 [1, 19]: < 100 nM; IC50 ([1]; Table 3A, A673 or K562 cells, 24 h treatment, read-out: HTT CJ (IC50, decrease in CJ mRNA)): < 100 nM; IC50 ([1]; canonical junction (CJ) mRNA, RT-qPCR panel, Table 4A, read-out: HTT, decrease in CJ mRNA levels, IC50): < 100 nM; AC50 [2, 19]: < 100 nM; IC50 ([2]; Table 3A, A673 or K562 cells, 24 h treatment, read-out: MYB CJ (IC50, decrease in CJ mRNA)): < 100 nM; IC50 ([2]; canonical junction (CJ) mRNA, RT-qPCR panel, Table 4A, read-out: MYB, decrease in CJ mRNA levels, IC50): < 100 nM; IC50 ([3]; canonical junction (CJ) mRNA, RT-qPCR panel, Table 4A, read-out: SMN2, decrease in CJ mRNA levels, IC50): < 100 nM; IC50 ([4]; canonical junction (CJ) mRNA, RT-qPCR panel, Table 4A, read-out: Target C, decrease in CJ mRNA levels, IC50): < 100 nM
Cc1ncc(-c2cc(O)c(-c3ccc(N4CC[C@@H](NC5CCC5)C4)nn3)cc2F)o1 [Compound 228, 2-{6-[(3R)-3-(cyclobutylamino)pyrrolidin-1-yl]pyridazin-3-yl}-4-fluoro-5-(2-methyl-1,3-oxazol-5-yl)phenol]									100 to 1000	100 to 1000	100 to 1000	100 to 1000	100 to 1000	100 to 1000	< 100	100 to 1000	
CCOc1cc(-c2ccc(-c3ccc(N4CCC(NCC5CC5)C4)nn3)c(O)c2)ncn1 (centres unmarked) [Compound 433]									> 10000	> 10000	> 10000	> 10000	> 10000	> 10000	> 10000	> 10000	
Cc1ncc(-c2ccc(-c3ccc(N4CC[C@H](N(C)C5CCC5)C4)nn3)c(O)c2)s1 [Compound 268]									1000 to 10000	100 to 1000	100 to 1000	> 10000	> 10000	> 10000	100 to 1000	> 10000	
Oc1cc(-c2cn[nH]c2)ccc1-c1ccc(N2CC[C@@H](NC3CCC3)C2)nn1 [Compound 114, 2-{6-[(3R)-3-(cyclobutylamino)pyrrolidin-1-yl]pyridazin-3-yl}-5-(1H-pyrazol-4-yl)phenol]									< 100	< 100	< 100	100 to 1000	100 to 1000	100 to 1000	< 100	100 to 1000	
Cc1ncc(-c2cc(O)c(-c3ccc(N4CC[C@H](NCC5CCC5)C4)nn3)cc2F)s1 [Compound 411]									< 100	< 100	< 100	100 to 1000	1000 to 10000	1000 to 10000	< 100	< 100	
CN(c1ccc(-c2ccc(-c3cn[nH]c3)cc2O)nn1)C1CC(C)(C)NC(C)(C)C1 [Compound 360]									< 100	< 100	< 100	< 100	< 100	< 100	< 100	< 100	
